Reference: patent US11084818B2 (HEPO PHARMACEUTICAL CO., LTD., priority 2016, dated 2021)

Key:
hTLR7 = target: T1, hTLR7 (Homo sapiens, UniProt Q9NYK1); experiment: Activation activity test of hTLR7 (HEK-Blue hTLR7 cells, QUANTI-Blue OD650); format: cell-based; conditions: 24 hours incubation, read-out: TLR7 (EC50)
T1 construct: host or cells: HEK-Blue hTLR7 (HEK293-derived reporter line)
T1 sequence (Q9NYK1 27-1049): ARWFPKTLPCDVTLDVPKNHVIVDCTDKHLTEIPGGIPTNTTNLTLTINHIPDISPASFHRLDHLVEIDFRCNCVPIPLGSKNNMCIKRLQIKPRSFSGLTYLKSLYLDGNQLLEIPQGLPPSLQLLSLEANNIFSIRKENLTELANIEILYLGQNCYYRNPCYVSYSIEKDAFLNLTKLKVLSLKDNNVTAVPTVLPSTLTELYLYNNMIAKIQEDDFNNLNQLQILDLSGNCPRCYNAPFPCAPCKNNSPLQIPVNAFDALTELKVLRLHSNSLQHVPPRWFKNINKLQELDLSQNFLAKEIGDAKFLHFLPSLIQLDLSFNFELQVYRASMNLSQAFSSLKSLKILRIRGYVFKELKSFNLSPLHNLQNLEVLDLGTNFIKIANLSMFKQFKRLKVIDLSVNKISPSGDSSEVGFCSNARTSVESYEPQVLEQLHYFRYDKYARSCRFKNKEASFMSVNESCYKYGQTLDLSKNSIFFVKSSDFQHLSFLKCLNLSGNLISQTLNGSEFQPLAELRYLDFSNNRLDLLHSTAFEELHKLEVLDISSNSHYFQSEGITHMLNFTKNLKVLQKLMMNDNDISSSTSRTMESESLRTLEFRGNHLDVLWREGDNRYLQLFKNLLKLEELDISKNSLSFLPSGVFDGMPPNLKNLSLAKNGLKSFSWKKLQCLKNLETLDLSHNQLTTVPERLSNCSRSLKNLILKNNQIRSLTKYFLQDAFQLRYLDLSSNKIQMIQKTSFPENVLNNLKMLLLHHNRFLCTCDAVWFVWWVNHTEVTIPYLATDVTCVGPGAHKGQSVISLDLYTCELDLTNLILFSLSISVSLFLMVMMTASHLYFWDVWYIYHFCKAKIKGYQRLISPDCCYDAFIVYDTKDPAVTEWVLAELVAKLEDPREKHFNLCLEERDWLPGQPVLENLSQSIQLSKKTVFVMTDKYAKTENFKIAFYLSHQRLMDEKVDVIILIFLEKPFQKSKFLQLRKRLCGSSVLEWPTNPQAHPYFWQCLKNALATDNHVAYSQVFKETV
Procedure: (§1) Effect Example 1: Activation Activity Test of hTLR7 and hTLR8
(§2) Cell lines: HEK-Blue™ hTLR7 and HEK-Blue™ hTLR8 (InvivoGen Co.)
(§3) Primary reagents: QUANTI-Blue™ (InvivoGen) and ATPlite 1 Step (PerkinElmer)
(§4) Primary instruments: Automatic Liquid Handling Workstation (Labcyte, Model: Echo), Cell Counter (Countstar, IC1000) and Multifunctional Enzyme Marker (Molecular Device, Flexstation III).
(§5) 2.1 The tested compounds were formulated into a 60 mM concentrated stock solution in DMSO and stored in a nitrogen cabinet.
(§6) 2.3 The T150 cultured cells were taken out from the CO2 incubator and the cell culture supernatant was discarded. The cells were washed with PBS once, followed by addition of about 10 mL of the culture solution. The cells were dissociated by patting the cell culture flask, and gently blown to even by a pipette.
(§7) The cells were counted, and the cell suspension was adjusted to 200,000 cells/mL by the culture solution. Thereafter, 200 μL of diluted cells was added to each well in a 96-well plate containing the compound (40,000 cells/well).
(§8) 2.4 The compounds and cells were incubated in a 5% CO2 incubator at 37° C. for 24 hours.
(§9) 2.5 Compound activity assay: 20 μl of the cell supernatant of each well after induction was added to a cell culture plate containing 180 μL of reagent QUANTI-Blue™, and incubated at 37° C. for 1.5 hours. Thereafter, the optical density absorption (OD650) of each well at 650 nm was measured using a Multifunctional Enzyme Marker: Flexstation III.
(§10) 2.6 Compound Activity: OD650 values were analyzed using GraphPad Prism software and the dose-response curves for the compound were fitted to calculate the EC50 values of the compound.

hTLR8 = target: T2, hTLR8 (Homo sapiens, UniProt Q9NR97); experiment: Activation activity test of hTLR8 (HEK-Blue hTLR8 cells, QUANTI-Blue OD650); format: cell-based; conditions: for EC50: HEK-Blue hTLR8 cells, 24 hours incubation, read-out: TLR8 (EC50)
T2 construct: host or cells: HEK-Blue hTLR8 (HEK293-derived reporter line)
T2 sequence (Q9NR97 27-1041): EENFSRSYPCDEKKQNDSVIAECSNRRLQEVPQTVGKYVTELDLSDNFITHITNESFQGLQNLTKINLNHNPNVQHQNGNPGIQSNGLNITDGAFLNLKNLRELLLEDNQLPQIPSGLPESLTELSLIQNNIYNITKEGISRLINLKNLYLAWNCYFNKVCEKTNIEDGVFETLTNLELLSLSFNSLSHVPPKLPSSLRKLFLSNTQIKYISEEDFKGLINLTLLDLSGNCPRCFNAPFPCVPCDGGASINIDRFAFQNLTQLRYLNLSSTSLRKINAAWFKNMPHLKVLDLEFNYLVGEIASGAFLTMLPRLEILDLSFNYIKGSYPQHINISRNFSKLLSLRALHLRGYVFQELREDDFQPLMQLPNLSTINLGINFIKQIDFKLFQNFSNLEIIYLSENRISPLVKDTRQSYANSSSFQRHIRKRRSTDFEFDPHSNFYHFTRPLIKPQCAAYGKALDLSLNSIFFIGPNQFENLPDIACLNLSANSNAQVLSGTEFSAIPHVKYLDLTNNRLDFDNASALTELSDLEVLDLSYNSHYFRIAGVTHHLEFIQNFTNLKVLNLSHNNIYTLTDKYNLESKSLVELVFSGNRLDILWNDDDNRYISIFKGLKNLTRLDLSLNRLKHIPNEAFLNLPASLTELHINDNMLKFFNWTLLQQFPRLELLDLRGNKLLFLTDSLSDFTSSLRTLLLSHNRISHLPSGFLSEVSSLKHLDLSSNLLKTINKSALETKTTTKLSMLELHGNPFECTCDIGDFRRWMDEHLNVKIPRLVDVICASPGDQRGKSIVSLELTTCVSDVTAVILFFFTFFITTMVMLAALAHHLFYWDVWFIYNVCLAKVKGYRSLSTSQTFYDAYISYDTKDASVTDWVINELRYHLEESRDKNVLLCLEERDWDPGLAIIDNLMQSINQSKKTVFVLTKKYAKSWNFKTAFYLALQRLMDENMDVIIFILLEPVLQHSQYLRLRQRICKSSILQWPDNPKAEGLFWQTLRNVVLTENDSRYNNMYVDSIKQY
Procedure: as §1, §2, §3, §4, §5, §6, §7, §8, §9, §10

Structure (SMILES)	EC50 (hTLR7)	EC50 (hTLR8)	agonistic activity against TLR8 (hTLR8; in words, from Table 1)
COCCOc1ncc2[nH]c(=O)n(C(C)c3ccc(CN4CCCC4)cc3)c2n1 (stereo not drawn) [Example 36]	10 to 100 µM	> 100 µM	
O=c1[nH]c2cnc(OCC3CCCO3)nc2n1Cc1ccc(CN2CCCC2)cc1 (stereo not drawn) [Example 46, 9-(4-(pyrrolidin-1-ylmethyl)benzyl)-2-((tetrahydrofuran-2-yl)methoxy)-7,9-dihydro-8H-purin-8-one]	1 to 10 µM	> 100 µM	
COCCOc1ncc2[nH]c(=O)n(Cc3cccc(CN4CCC4)c3)c2n1 [Example 19, 2-(2-methoxyethoxy)-9-(3-(azetidin-1-ylmethyl)benzyl)-7,9-dihydro-8H-purin-8-one]	1 to 10 µM	> 100 µM	
COCCCOc1ncc2[nH]c(=O)n(Cc3ccc(CN4CCCC4)cc3)c2n1 [Example 45, 9-(4-(pyrrolidin-1-ylmethyl)benzyl)-2-(3-methoxypropoxy)-7,9-dihydro-8H-purin-8-one]	0.001 to 1 µM	> 100 µM	
COCCOc1nc(C)c2[nH]c(=O)n(Cc3ccc(CN4CCCC4)cc3)c2n1 [Example 58, 9-(4-(pyrrolidin-1-ylmethyl)benzyl)-6-methyl-2-(2-methoxyethoxy)-7,9-dihydro-8H-purin-8-one]	> 100 µM	> 100 µM	
COCCOc1ncc2[nH]c(=O)n(Cc3ccc(CN4C[C@H]5CN(C)C[C@H]5C4)cc3)c2n1 [Example 12]	1 to 10 µM	> 100 µM	
COC(C)CCOc1ncc2[nH]c(=O)n(Cc3ccc(CN4CCCC4)cc3)c2n1 (stereo not drawn) [Example 49, 9-(4-(pyrrolidin-1-ylmethyl)benzyl)-2-(3-methoxybutoxy)-7,9-dihydro-8H-purin-8-one]	0.001 to 1 µM	> 100 µM	
COCCCCOc1ncc2[nH]c(=O)n(Cc3ccc(CN4CCCC4)cc3)c2n1 [Example 47, 9-(4-(pyrrolidin-1-ylmethyl)benzyl)-2-(4-methoxybutoxy)-7,9-dihydro-8H-purin-8-one]	1 to 10 µM	> 100 µM	
COCCOc1ncc2[nH]c(=O)n(Cc3cccc(CN4CCCCCC4)c3)c2n1 [Example 21, 2-(2-methoxyethoxy)-9-(3-(azepan-1-ylmethyl)benzyl)-7,9-dihydro-8H-purin-8-one]	10 to 100 µM	> 100 µM	
COCCOc1ncc2[nH]c(=O)n(Cc3ccc(CN4C5CCC4CC5)cc3)c2n1 [Example 53, 9-(4-((7-azabicyclo[2.2.1]heptan-7-yl)methyl)benzyl)-2-(2-methoxyethoxy)-7,9-dihydro-8H-purin-8-one]	1 to 10 µM	> 100 µM	
COCCOc1ncc2[nH]c(=O)n(Cc3cccc(CN4CCN(C)CC4)c3)c2n1 [Example 25, 2-(2-methoxyethoxy)-9-(3-((4-methylpiperazin-1-yl)methyl)benzyl)-7,9-dihydro-8H-purin-8-one]	10 to 100 µM	> 100 µM	
CCC(c1ccc(Cn2c(=O)[nH]c3cnc(OCCOC)nc32)cc1)N1CCCC1 (stereo not drawn) [Example 17]	1 to 10 µM	> 100 µM	
COCCOc1ncc2[nH]c(=O)n(Cc3ccc(CN4CC5CC(C5)C4)cc3)c2n1 [Example 52, 9-(4-((3-azabicyclo[3.1.1]heptan-3-yl)methyl)benzyl)-2-(2-methoxyethoxy)-7,9-dihydro-8H-purin-8-one]	1 to 10 µM	> 100 µM	
COCCOc1ccc2[nH]c(=O)n(Cc3ccc(CN4CCCC4)cc3)c2n1 [Example 40, 5-(2-methoxyethoxy)-3-(4-(pyrrolidin-1-ylmethyl)benzyl)-1,3-dihydro-2H-imidazole[4,5-b]pyridin-2-one]	> 100 µM	> 100 µM	
O=c1[nH]c2cnc(OCCOCC3CC3)nc2n1Cc1ccc(CN2CCCC2)cc1 [Example 65, 9-(4-(pyrrolidin-1-ylmethyl)benzyl)-2-(2-(cyclopropylmethoxy)ethoxy)-7,9-dihydro-8H-purin-8-one]	1 to 10 µM	> 100 µM	
COCCOc1ncc2[nH]c(=S)n(Cc3ccc(CN4CCCC4)cc3)c2n1 [Example 60, 2-(2-methoxyethoxy)-9-(4-(pyrrolidin-1-ylmethyl)benzyl)-7,9-dihydro-8H-purin-8-thione]	> 100 µM	> 100 µM	
CCCCOc1ncc2[nH]c(=O)n(Cc3ccc(CN4CCCC4)cc3)c2n1 [Example 66, 9-(4-(pyrrolidin-1-ylmethyl)benzyl)-2-butoxy-7,9-dihydro-8H-purin-8-one]	> 100 µM	> 100 µM	
O=c1[nH]c2cnc(OCCOC(F)(F)F)nc2n1Cc1ccc(CN2CC=CC2)cc1 [Example 55]	0.001 to 1 µM	> 100 µM	
CCCC[S+]([O-])c1ncc2[nH]c(=O)n(Cc3cccc(CN4CCCC4)c3)c2n1 (stereo not drawn) [Example 34, 2-butylsulfinyl-9-(3-(pyrrolidin-1-ylmethyl)benzyl)-7,9-dihydro-8H-purin-8-one]	> 100 µM	> 100 µM	
COCCOc1ncc2[nH]c(=O)n(Cc3ccc(CN4CCCC4)c(F)c3)c2n1 [Example 62, 2-(2-methoxyethoxy)-9-(3-fluoro-4-(pyrrolidin-1-ylmethyl)benzyl)-7,9-dihydro-8H-purin-8-one]	1 to 10 µM	> 100 µM	
COCCOc1ncc2[nH]c(=O)n(Cc3ccc(C(C)N4CCCCCC4)cc3)c2n1 (stereo not drawn) [Example 16, 2-(2-methoxyethoxy)-9-(4-(1-(azacycloheptane-1-yl)ethyl)benzyl)-7,9-dihydro-8H-purin-8-one]	0.001 to 1 µM	> 100 µM	
COCCOc1ncc2[nH]c(=O)n(Cc3ccc(CCN4CCCC4)cc3)c2n1 [Example 68, 9-(4-(2-(pyrrolidin-1-yl)ethyl)benzyl)-2-(2-methoxyethoxy)-7,9-dihydro-8H-purin-8-one]	1 to 10 µM	> 100 µM	
CCOCc1nc2c(N)nc3ccccc3c2n1CC(C)(C)O [Example R848, reference compound]			strong agonistic activity
